Structures can show the parent of a compound that is named as a salt. Where two headings read alike, the source gives them in different places.
Key:
Type in all cases: cell-based, Mycobacterium tuberculosis
M. tuberculosis isolates [1] = system: M. tuberculosis isolates
[2] = system: 33 isolates of M. tuberculosis; conditions: for need for drug pre-treatment prior to phage incubation: Tb inoculum and phage added simultaneously, significant ΔCt in 24 hour
[3] = system: M. tuberculosis in smear positive sputum sediments; conditions: total 22 sediments
M. tuberculosis isolates [4] = system: M. tuberculosis isolates; remark: listed apart in the source
[5] = system: M. tuberculosis H37Rv (ATCC 27294); assay: D29 phage-qPCR assay development on H37Rv; conditions: for duration of drug treatment at which qPCR Ct became clearly disparate from control: drug treatment followed by 24 h phage incubation, FIG. 1D
[6] = strains confirmed as drug susceptible by agar proportion

| Molecule | need for drug pre-treatment prior to phage incubation [2] | Culture R (n samples) ([3]; sediment phage assay result R) | Culture S (n samples) ([3]; sediment phage assay result R) | Culture R (n samples) ([3]; sediment phage assay result S) | Culture S (n samples) ([3]; sediment phage assay result S) | Agar proportion R (n isolates) (M. tuberculosis isolates [4]; phage assay result R) | Agar proportion S (n isolates) (M. tuberculosis isolates [4]; phage assay result R) | Agar proportion R (n isolates) (M. tuberculosis isolates [4]; phage assay result S) | Agar proportion S (n isolates) (M. tuberculosis isolates [4]; phage assay result S) | other results |
| --- | --- | --- | --- | --- | --- | --- | --- | --- | --- | --- |
| NCC[C@H](O)C(=O)N[C@@H]1C[C@H](N)[C@@H](O[C@H]2O[C@H](CN)[C@@H](O)[C@H](O)[C@H]2O)[C@H](O)[C@H]1O[C@H]1O[C@H](CO)[C@@H](O)[C@H](N)[C@H]1O [Amikacin, amikacin] | no pre-treatment was required |  |  |  |  |  |  |  |  | Agar proportion susceptible (n isolates) (M. tuberculosis isolates [1]; listed as AMK): 31; D29 phage assay susceptible (n isolates) ([2]; listed as AMK): 31 |
| N[C@@H]1CON=C1O [Cycloserine, D-cycloserine] | no pre-treatment was required |  |  |  |  |  |  |  |  |  |
| CC[C@@H](CO)NCCN[C@@H](CC)CO [Ethambutol, ethambutol hydrochloride] |  | 0 | 0 | 0 | 22 | 0 | 1 | 8 | 145 | Agar proportion susceptible (n isolates) (M. tuberculosis isolates [1]; listed as EMB, hydrochloride): 12; D29 phage assay susceptible (n isolates) ([2]; listed as EMB, hydrochloride): 12; duration of drug treatment of Tb prior to 24 hours of phage incubation yielding optimal ΔCt [2, 6]: 48 h |
| CCc1cc(C(N)=S)ccn1 [Ethionamide, ethionamide] |  |  |  |  |  |  |  |  |  | duration of drug treatment of Tb prior to 24 hours of phage incubation yielding optimal ΔCt [2]: 48 h |
| NNC(=O)c1ccncc1 [Isoniazid, isoniazid] |  | 1 | 3 | 0 | 18 | 22 | 9 | 5 | 118 | number of phage / real-time PCR Ct value after drug pre-treatment [5]: the number of phage did not increase/Ct value did not decrease; need for drug pre-treatment prior to phage incubation ([5]; H37Rv, FIG. 1E, 48 h superior to 24 h, 6 h and 3 h): pre-treatment was required; duration of drug treatment at which qPCR Ct became clearly disparate from control ([5]; H37Rv): 48 h |
| CC(=O)NC[C@H]1CN(c2ccc(N3CCOCC3)c(F)c2)C(=O)O1 [Linezolid, linezolid] | no pre-treatment was required |  |  |  |  |  |  |  |  |  |
| CO[C@H]1/C=C/O[C@@]2(C)Oc3c(C)c(O)c4c(O)c(c(/C=N/N5CCN(C)CC5)c(O)c4c3C2=O)NC(=O)/C(C)=C\C=C\[C@H](C)[C@H](O)[C@@H](C)[C@@H](O)[C@@H](C)[C@H](OC(C)=O)[C@@H]1C [Rifampin, rifampin] |  | 1 | 0 | 0 | 21 | 5 | 2 | 5 | 142 | Agar proportion susceptible (n isolates) (M. tuberculosis isolates [1]; listed as RIF): 11; D29 phage assay susceptible (n isolates) ([2]; listed as RIF): 11; number of phage / real-time PCR Ct value after drug pre-treatment [5]: the number of phage did not increase/Ct value did not decrease; ΔCtRIF (Ct control−Ct drug) [5]: −12; ΔCt ([5]; H37Rv pre-treated with drug for 72 hours, FIG. 1B): approximately −5; duration of drug treatment at which qPCR Ct became clearly disparate from control ([5]; H37Rv): 24 h |
| [H]/N=C(/N)N[C@H]1[C@H](O)[C@@H](O)[C@H](O[C@@H]2O[C@@H](C)[C@](O)(C=O)[C@H]2O[C@@H]2O[C@@H](CO)[C@H](O)[C@@H](O)[C@@H]2NC)[C@@H](N/C(N)=N\[H])[C@@H]1O [Streptomycin, streptomycin sulfate] | no pre-treatment was required | 1 | 0 | 1 | 20 | 16 | 0 | 3 | 135 |  |
| Nc1ccc(C(=O)O)c(O)c1 [para-aminosalicylic acid] |  |  |  |  |  |  |  |  |  | duration of drug treatment of Tb prior to 24 hours of phage incubation yielding optimal ΔCt [2, 6]: 48 h |
| capreomycin sulfate | no pre-treatment was required |  |  |  |  |  |  |  |  | Agar proportion susceptible (n isolates) (M. tuberculosis isolates [1]; listed as CAP): 31; D29 phage assay susceptible (n isolates) ([2]; listed as CAP): 30 |

Source: patent US20140256664A1, “COMPOSITIONS AND METHODS FOR A MYCOBACTERIUM TUBERCULOSIS DRUG SUSCEPTIBILITY TEST” (priority 2011, published 2014)
